# According to patent publication US20230349922A1, “H2 Blockers Targeting Liver Macrophages for the Prevention and Treatment of Liver Disease and Cancer” (Université de Strasbourg, priority 2020, published 2023):
# Tests used:
# Format in all cases: cell-based, human
# Huh7.5.1dif cells = test: IL6 and TNFα expression by qRT-PCR in HCV-infected Huh7.5.1dif cells
# Experimental: FIG. 8. The Huh7.5.1^dif Cell-Based System Recapitulates Transcriptional Dysregulations in Human Macrophages. (A-B) HRH2 knockdown leads to CREB5 downregulation in Huh7.5.1^dif cells similar to macrophages. Macrophages (A) and Huh7.5.1^dif cells (B) were transfected with siRNA CTRL or targeting HRH2 expression and activated using LPS+IFNγ or HCV-infection respectively. HRH2, CREB5 expression and the HCV viral load were analyzed by qRT-PCR. (Macrophage=three independent experiments n=8; Huh7.5.1^dif cells=two independent experiments n=6). (C) Nizatidine treatment decreases IL6 and TNF expression in Huh7.5.1^dif cells similar to macrophage. Huh7.5.1^dif cells were HCV infected and treated with nizatidine. IL6 and TNFα expression were analyzed by qRT-PCR. […]
# Real-Time qRT-PCR. cDNAs were synthetized by reverse transcription using SuperScript III First-Strand Synthesis SuperMix (Life Technologies). Expression of […] IL6, TNFα and IL1β was analyzed by quantitative real-time PCR using TaqMan Gene Expression Assays (Thermo Fisher Scientific) on the CFX96 Touch Real-Time PCR Detection System PCR system (Bio-Rad). Expression of human CCL2 and TGF was analyzed using iTaq™ Universal SYBR® Green Supermix (Bio-Rad). The 2^−ΔCT method was used for relative quantification (Schmittgen and Livak, Nature Protoc., 2008, 3: 1101-1108) of mRNA with normalization to 18S. […]
# intracellular cAMP = test: Intracellular cAMP level by ELISA in HCV-infected Huh7.5.1dif cells; settings: increase following induction of the poor-prognosis PLS (HCV Jc1 5 days), nizatidine 3 more days
# Experimental: ELISA Assay. To assess the HCV infection and nizatidine treatment on intracellular cAMP level, Huh7.5.1^dif cells were infected with HCV Jc1 for 5 days and were incubated for 3 more days with nizatidine or DMSO as a control. The cAMP level was measured by ELISA assay using the cAMP Parameter Assay Kit (R&D System) according to manufacturer's instructions.
# [1] = test system: patient-derived Kupffer cells; test: Cytokine expression by qRT-PCR in M1 differentiated patient-derived Kupffer cells; settings: Kupffer cells isolated from patient tissues, LPS + IFNγ, nizatidine 30 μM 48 hours
# Experimental: Real-Time qRT-PCR. cDNAs were synthetized by reverse transcription using SuperScript III First-Strand Synthesis SuperMix (Life Technologies). Expression of […] IL6, TNFα and IL1β was analyzed by quantitative real-time PCR using TaqMan Gene Expression Assays (Thermo Fisher Scientific) on the CFX96 Touch Real-Time PCR Detection System PCR system (Bio-Rad). Expression of human CCL2 and TGF was analyzed using iTaq™ Universal SYBR® Green Supermix (Bio-Rad). The 2^−ΔCT method was used for relative quantification (Schmittgen and Livak, Nature Protoc., 2008, 3: 1101-1108) of mRNA with normalization to 18S. The 2^−ΔCT method was used for relative quantification (Schmittgen and Livak, Nature Protoc., 2008, 3: 1101-1108) of mRNA with normalization to GAPDH mRNA. Isolation and Treatment of Patient-Derived Kupffer Cells. Kupffer cells were isolated as previously described (Kegel et al., J. Vis. Exp., 2016, 109: e53069) from liver tissue of patients without history of chronic liver disease. Briefly, the non-parenchymal cell populations (NPCs) were purified by serial centrifugation followed by separation of Kupffer cells, exploiting fast attachment of primary macrophages to plastic within 20 minutes. Cells were cultured in RPMI 1640 Medium with GlutaMAX™-I supplement and HEPES and supplemented with 10% FBS and gentamycin (0.05 mg/mL). […]
# liver macrophages = test: scRNA-Seq of CD45+ leucocytes from patient liver tissue treated with nizatidine
# Experimental: Single-Cell RNA-Seq Analyses of Patient Liver Tissues. Human cells were dissociated from HCC patient liver tissues. Fresh or cryopreserved tissues were minced into 2 to 3 mm pieces and incubated with collagenase (0.5 mg/mL) for 30 minutes at 37° C. Digested tissues were filtered through a sterile nylon mesh to separate the dispersed cells from tissue fragments and washed with Hanks' Balanced Salt Solution (HBSS). Cells were then centrifuged at 600×g for 5 minutes at 4° C. Leucocytes CD45^+ cells were separated from other cell types by flow cytometry using SH800 cell sorter (Sony). Briefly, 500,000 cells per condition were stained with human CD45 specific antibody. Living cells were selected using Zombie green staining according to manufacturer's instructions. Data were acquired using the Sony Cell Sorter Software. Cells were then cultured in MammoCultTM medium and treated with nizatidine 50 μM or DMSO vehicle control. Two days after treatment, single cells were sorted into 384 well cell capture plates (Single Cell Discovery, website: www.scdiscoveries.com) using SH800 cell sorter (Sony). The plates contain mineral oil and droplets of poly-A primers, containing a cell-specific barcode and a unique molecular identifier (UMI), enabling to distinguish the well-specific (and cell-specific) mRNA molecules. scRNA-Seq was performed by Single-Cell Discoveries B.V. using SORT-seq protocol (Muraro et al., Pancreas Cell Syst., 2016, 3: 385-394, e3). Single Cell RNA-Seq Profiling of Human Cells. scRNA-Seq analysis of patient-derived liver tissue was assessed using R version 3.5.3 with package “[…]” for clusterization, cluster analysis and DEG calculation, as previously described (Aizarani et al., Nature; 2019, 572: 199-204).
# [2] = GSEA, nizatidine-treated vs CTRL macrophages
# [3] = gene-level analysis in macrophages
# [4] = nizatidine 50 μM, two days, scRNA-Seq
compound,measurement,setting,value
"CNC(=C[N+](=O)[O-])NCCSCc1csc(CN(C)C)n1 [Nizatidine, N-[2-[[[2-[(dimethylamino)methyl]-4-thizaolyl]methyl]thio]ethyl]-N′-methyl-2-nitro-1,1-ethene-diamine]",IL6 expression,Huh7.5.1dif cells,decreased
same,TNFα expression,Huh7.5.1dif cells,decreased
same,intracellular cAMP level,intracellular cAMP,reverted
same,pro-inflammatory cytokine expression,[1],direct effect
same,IFNγ response and antigen processing and presentation,liver macrophages; [2],augmenting IFNγ response and antigen processing and presentation
same,c-Myc pathway expression,liver macrophages; [2],strong suppression of the c-Myc pathway expression
same,immunoregulatory macrophage (M2) signature,liver macrophages; [2],only partially induces the immunoregulatory macrophage (M2) signature
same,"pro-inflammatory and pro-fibrogenic responses (TNFα, IL2 and IL6 signaling pathways)",liver macrophages; [2],suppresses pro-inflammatory and pro-fibrogenic responses
same,pro-inflammatory macrophage (M1) signature,liver macrophages; [2],suppresses the pro-inflammatory macrophage (M1) signature
same,major histocompatibility complex (MHC) molecules expression,liver macrophages; [3],increase in major histocompatibility complex (MHC) molecules expression
same,"neutrophil/monocyte chemoattractant and pro-inflammatory cytokine expression (CXCL5, CCL2, CCL5)",liver macrophages; [3],decrease in neutrophil/monocyte chemoattractant and pro-inflammatory cytokine expression
same,"pro-fibrotic/tumorigenic soluble factor expression (IL6, IL1b, PDGF, MMP9, TNFα)",liver macrophages; [3],suppression of pro-fibrotic/tumorigenic soluble factor expression
same,Siglec-10 expression in macrophages,liver macrophages; [4],decreases expression
same,macrophage CLEC5A expression,liver macrophages; [4],decreased macrophage CLEC5A expression
